Experimental data reported in patent US4044134A, “Fused pyrimidin-4(3H)-ones as antiallergy agents” (Pfizer Inc., priority 1976, dated 1977).
Structures can show the parent of a compound that is named as a salt. Where two headings read alike, the source gives them in different places.

System: passive cutaneous anaphylaxis (PCA) reaction
Test: passive cutaneous anaphylaxis (PCA) test, i.v. or oral administration
Assay type: in vivo, male Charles River Wistar rats
Experimental: In the PCA test, normal animals are injected intradermally (i.d.) with antibodies contained in serum obtained from actively sensitized animals. The animals are then challenged intravenously with antigen mixed with a dye such as Evans' Blue. The increased capillary-permeability caused by the antigen-antibody reaction causes the dye to leak from the site of the antibody injection. The test animals are then asphyxiated and the intensity of the reaction determined by measuring the diameter and intensity of the blue coloration on the inner surface of the animals skin. […] The ability of agents to interfere with PCA reactions is measured in male Charles River Wistar rats, 170-210 g. […] Hyperimmune antisera to hen egg albumin is prepared according to Orange, et al., J. Exptl. […] Forty-eight hours prior to antigen challenge the reaginic antisera is injected intradermally (i.d.) into the shaved skin of a normal rat's back; 5 hours before challenge the hyperimmune antisera is similarly injected; 5 hours later, at a third site, 60 mcg. histamine dihydrochloride is injected i.d. as a check for antihistaminic and unspecific types of blockage; the compounds of the instant invention or saline are then administered i.v. and immediately followed by 2.5 mg. Evan's blue dye and 5 mg. egg albumin in saline. In the case of oral administration Evan's blue dye and egg albumen are given five minutes after administration of the drug. Thirty minutes later the animals are asphyxiated using chloroform and the skin of the back removed and reversed for observation. A score is assigned each injection site equal to the product of the diameter of the site in mm. and a grade of 0.1, 0.5, 1, 2, 3 or 4 proportional to intensity of dye coloration. The scores for a given injection site are summed for each group of 8 animals and compared to the saline treated controls. The difference is expressed as percent blockade due to the compound employed. […] Disodium cromoglycate, a commerial antiallergy agent, is included for comparison. [drawing 3]

[1] = Rattus norvegicus, iv, I.V., read-out: degree (%) of protection, PCA test
[2] = Rattus norvegicus, iv, I.V., 3 mg/kg, read-out: degree (%) of protection, PCA test
[3] = Rattus norvegicus, iv, I.V., 10 mg/kg, read-out: degree (%) of protection, PCA test
[4] = Rattus norvegicus, Oral, 10 mg/kg, read-out: degree (%) of protection, PCA test
[5] = Rattus norvegicus, Oral, read-out: degree (%) of protection, PCA test
[6] = Rattus norvegicus, iv, I.V., 0.003 mg/kg, read-out: degree (%) of protection, PCA test
[7] = Rattus norvegicus, Oral, 3 mg/kg, read-out: degree (%) of protection, PCA test
[8] = Rattus norvegicus, iv, read-out: degree (%) of protection, PCA test

| Structure (SMILES) | inhibition in vivo at 1 mg/kg [1] | inhibition in vivo at 3 mg/kg [2] | inhibition in vivo at 10 mg/kg [4] | inhibition in vivo at 30 mg/kg [5] | inhibition in vivo at 0.03 mg/kg [1] | inhibition in vivo at 0.3 mg/kg [1] | also measured |
| --- | --- | --- | --- | --- | --- | --- | --- |
| O=C(O)c1nc2cc3ccccc3cc2c(=O)[nH]1 [COOH/H/H/H/H (Formula II)] | 14% | 36% | 33% | 0% |  |  | inhibition in vivo at 10 mg/kg [3]: 100%; inhibition in vivo at 100 mg/kg [5]: 9% |
| CCOC(=O)c1nc2nc3cc(OC)c(O)cc3cc2c(=O)[nH]1 [COOC2 H5/H/H/OH/OCH3/H, Ethyl 7-Hydroxy-8-Methoxypyrimido[4,5-b]Quinolin-4(3H)One-2-Carboxylate Trifluoroacetate] |  |  |  | 6% | 97% |  | inhibition in vivo at 0.0003 mg/kg (Rattus norvegicus, iv, I.V., 0.0003 mg/kg, read-out: degree (%) of protection, PCA test): 38%; inhibition in vivo at 0.003 mg/kg [6]: 94%; inhibition in vivo at 0.01 mg/kg [1]: 98% |
| CCOC(=O)c1nc2nc3c(OC)cc(OC)cc3cc2c(=O)[nH]1 [COOC2 H5/H/H/OCH3/H/OCH3] |  | 97% |  | 41% | 14% | 38% |  |
| CCOC(=O)c1nc2nc3ccc(F)cc3cc2c(=O)[nH]1 [COOC2 H5/H/H/F/H/H, Ethyl 7-fluoropyrimido[4,5-b]quinolin-4(3H)-one-2-carboxylate] | 90% | 82% |  | 17% | 0% |  |  |
| CCOC(=O)c1nc2nc3ccc(O)cc3cc2c(=O)[nH]1 [COOC2 H5/H/H/OH/H/H, ethyl 7-hydroxypyrimido [4,5-b]quinolin-4(3H)one-2-carboxylate hemitrifluoroacetate] |  |  | 13% |  | 21% | 92% | inhibition in vivo at 3 mg/kg [7]: 4% |
| COc1cc2cc3c(=O)[nH]c(C(C)=O)nc3nc2cc1OC [COCH3/H/H/OCH3/OCH3/H, 2-Acetyl-7,8-Dimethoxypyrimido[4,5-b]quinoline-4(3H)-One] | 21% | 100% | 15% |  |  |  | inhibition in vivo at 0.1 mg/kg [1]: 19% |
| COc1cc2cc3c(=O)[nH]c(C(=O)OCCO)nc3nc2cc1OC [COOCH2 CH2 OH/H/H/OCH3/OCH3/H, 2-hydroxyethyl 7,8-Dimethoxy-pyrimidin[4,5-b]quinolin-4-(3H)-One-2-Carboxylate] |  | 97% | 65% |  | 92% | 94% |  |
| COc1cc2nc3nc(C(=O)O)[nH]c(=O)c3cc2cc1O [COOH/H/H/OH/OCH3/H, 7-Hydroxy-8-Methoxypyrimido[4,5-b]Quinolin-4(3H)One-2-Carboxylic Acid] |  | 100% |  |  |  |  | inhibition in vivo at 0.003 mg/kg [6]: 90%; inhibition in vivo at 0.01 mg/kg [1]: 86% |
| Cc1nc2cc3ccccc3cc2c(=O)[nH]1 [2-methylbenzo[g]quinazolin-4(3H)-one, reference compound] |  |  |  |  |  |  | activity in the PCA test (rat, in vivo): little or no activity |
| CCOC(=O)Cc1nc2cc3ccccc3cc2c(=O)[nH]1 [2-carbethoxymethylbenzo[g]quinazolin-4(3H)-one, reference compound] |  | 49% |  |  |  |  |  |
| CCOC(=O)c1nc2nc3cc(OC)c(OCC)cc3cc2c(=O)[nH]1 [COOC2 H5/H/H/OC2 H5/OCH3/H] |  | 100% | 92% |  | 85% |  | inhibition in vivo at 0.003 mg/kg [6]: 50%; inhibition in vivo at 0.01 mg/kg [1]: 72%; inhibition in vivo at 0.1 mg/kg [1]: 99%; inhibition in vivo at 0.3 mg/kg [5]: 56%; inhibition in vivo at 1 mg/kg [5]: 76%; inhibition in vivo at 3 mg/kg [7]: 83% |
| CCCCOC(=O)c1nc2nc3cc(OC)c(O)cc3cc2c(=O)[nH]1 [COO-(n-C4 H9)/H/H/OH/OCH3/H, n-butyl 7-hydroxy-8-methoxypyrimido[4,5-b]quinolin-4(3H)one-2-carboxylate trifluoroacetate] |  | 100% | 67% |  |  |  | inhibition in vivo at 0.003 mg/kg [6]: 52% |
| CCOC(=O)c1nc2nc3cc(OC)c(OC(C)=O)cc3cc2c(=O)[nH]1 [COOC2 H5/H/H/CH3 COO/OCH3/H, Ethyl 7-Acetoxy-8-Methoxypyrimido[4,5-b]Quinolin-4(3H)One-2-Carboxylate p-Toluenesulfonate] |  |  |  |  |  |  | inhibition in vivo at 0.003 mg/kg [8]: 53%; inhibition in vivo at 3 mg/kg [8]: 100%; inhibition in vivo at 10 mg/kg (Rattus norvegicus, po, read-out: degree (%) of protection, PCA test): 40% |
| CCOC(=O)c1nc2nc3ccccc3cc2c(=O)[nH]1 [COOC2 H5/H/H/H/H/H, Ethyl Pyrimido[4,5-b]Quinolin-4-(3H)-One-2-Carboxylate] | 100% | 99% |  | 72% | 30% | 82% | inhibition in vivo at 0.1 mg/kg [1]: 45%; inhibition in vivo at 10 mg/kg [3]: 100%; inhibition in vivo at 1 mg/kg [5]: 12%; inhibition in vivo at 3 mg/kg [7]: 69%; inhibition in vivo at 60 mg/kg (Rattus norvegicus, Oral, 60 mg/kg, read-out: degree (%) of protection, PCA test): 100%; inhibition in vivo at 100 mg/kg [5]: 80% |
| CCOC(=O)c1nc2nc3ccccc3c(-c3ccccc3)c2c(=O)[nH]1 [COOC2 H5/C6 H5/H/H/H/H, Ethyl 5-Phenylpyrimido[4,5-b]Quinolin-4(3H)-One-2-Carboxylate] | 95% | 100% | 0% |  |  | 51% | inhibition in vivo at 0.1 mg/kg [1]: 9%; inhibition in vivo at 1 mg/kg [5]: 0% |
| CCOC(=O)c1nc2nc3cc(OCc4ccccc4)c(OC)cc3cc2c(=O)[nH]1 [COOC2 H5/H/H/OCH3/OC7 H7/H, ethyl 7-methoxy-8-benzyloxypyrimido[4,5-b]quinolin-4(3H)one-2-carboxylate] |  | 94% |  |  |  | 23% |  |
| CCCCOC(=O)c1nc2nc3cc(OC)c(OC(C)=O)cc3cc2c(=O)[nH]1 [COO-(n-C4 H9)/H/H/CH3 COO/OCH3/H] |  | 100% | 36% |  |  |  |  |
| O=C(O)c1nc2nc3ccc(O)cc3cc2c(=O)[nH]1 [COOH/H/H/OH/H/H, 7-hydroxypyrimido[4,5-b]quinolin-4(3H)one-2-carboxylic acid] |  | 100% |  |  | 91% |  | inhibition in vivo at 0.003 mg/kg [6]: 4% |
| CCOC(=O)c1nc2nc3cc(OCc4ccccc4)c(OCC)cc3cc2c(=O)[nH]1 [COOC2 H5/H/H/OC2 H5/OC7 H7/H] |  | 71% | 0% | 0% |  | 30% | inhibition in vivo at 0.1 mg/kg [1]: 3% |
| COc1cc2cc3c(=O)[nH]c(C)nc3nc2cc1OC [CH3/H/H/OCH3/OCH3/H, 2-Methyl-7,8-Dimethoxypyrimido[4,5-b]Quinolin-4(3H)-One] |  | 77% |  |  | 11% | 45% | inhibition in vivo at 1 mg/kg [5]: 43%; inhibition in vivo at 3 mg/kg [7]: 67% |
| O=C(O)c1nc2nc3ccccc3cc2c(=O)[nH]1 [COONa/H/H/H/H/H, Pyrimido[4,5-b]Quinolin-4(3H)-One-2-Carboxylic Acid Disodium Salt] | 92% |  | 0% |  |  | 68% | inhibition in vivo at 100 mg/kg [5]: 96% |
| CCOC(=O)c1nc2nc3cc4c(cc3cc2c(=O)[nH]1)OCCO4 [COOC2 H5/H/H/--O--CH2 CH2 --O--/H] | 64% | 72% |  |  |  |  |  |
| CCOC(=O)c1nc2nc3c(OC)ccc(OC)c3cc2c(=O)[nH]1 [COOC2 H5/H/OCH3/H/H/OCH3] |  | 100% |  | 23% | 0% | 25% |  |
